{"source": "patent US20240325292A1", "about": "“COMPOSITION AND METHODS OF TREATMENT USING TRANSDERMAL SUPPLEMENTATION” (Xygenyx Inc., priority 2023, published 2024)", "origin": "cited, not measured here", "key": {"rheumatoid arthritis": {"test_system": "rheumatoid arthritis", "conditions": "arthritic subjects"}, "[1]": {"conditions": "as compared to α-tocopherol = 1.0"}, "[2]": {"conditions": "dietary intake in equal portions"}, "[3]": {"conditions": "in vivo"}, "[4]": {"conditions": "as penetration enhancer"}, "[5]": {"test_system": "markers of inflammation in the blood", "conditions": "individuals with metabolic syndrome"}, "[6]": {"assay": "not given", "remark": "listed apart in the source"}, "[7]": {"test_system": "wide dynamic range neurons in the ventroposterolateral nucleus of the thalamus", "conditions": "in vivo"}, "[8]": {"conditions": "400-500 IU, in combination with 10-20 mg β-carotene and 400-500 mg vitamin C"}}}
{"compound": "C=C1CC/C=C(\\C)CC[C@@H]2[C@@H]1CC2(C)C", "note": "[β-caryophyllene]", "values": [{"measurement": "joint and lymph node swelling, leukocyte number", "setting": "rheumatoid arthritis", "value": "reduced swelling of joints and lymph nodes as well as the number of circulating and articular leukocytes"}]}
{"compound": "Cc1cc(O)c(C)c2c1O[C@](C)(CCC[C@H](C)CCC[C@H](C)CCCC(C)C)CC2", "note": "[β-tocopherol]", "values": [{"measurement": "relative biological activity", "setting": "[1]", "value": 0.5}]}
{"compound": "C/C(=C\\CO)CCC[C@H](C)CCC[C@H](C)CCCC(C)C", "note": "[phytol, Phytol]", "values": [{"measurement": "solubility in water", "value": "nearly insoluble in water"}]}
{"compound": "Cc1c(O)cc2c(c1C)O[C@](C)(CCC[C@H](C)CCC[C@H](C)CCCC(C)C)CC2", "note": "[γ-tocopherol]", "values": [{"measurement": "relative biological activity", "setting": "[1]", "value": 0.1}, {"measurement": "concentration in vivo relative to α-tocopherol", "setting": "[2]", "value": "roughly 10%"}]}
{"compound": "HGH: hormone comprising a peptide chain that is synthesized in the pituitary gland", "values": [{"measurement": "biological half-life", "setting": "[3]", "value": "10-20 minutes"}]}
{"compound": "CC12CCC(CC1)C(C)(C)O2", "note": "[eucalyptol, 1,8-epoxy-p-menthane]", "values": [{"measurement": "increase of transdermal drug uptake, factor", "setting": "[4]", "value": "more than 10"}]}
{"compound": "Cc1cc(O)cc2c1O[C@](C)(CCC[C@H](C)CCC[C@H](C)CCCC(C)C)CC2", "note": "[δ-tocopherol]", "values": [{"measurement": "relative biological activity", "setting": "[1]", "value": 0.03}, {"measurement": "markers of inflammation in the blood", "setting": "[5]", "value": "reduced markers of inflammation"}]}
{"compound": "Cc1c(C)c2c(c(C)c1O)CC[C@@](C)(CCC[C@H](C)CCC[C@H](C)CCCC(C)C)O2", "note": "[α-tocopherol]", "values": [{"measurement": "progression of age-related macular degeneration", "setting": "[6]; [8]", "value": "dramatically reduce the progression"}, {"measurement": "reduction in the development of age-related cataracts", "setting": "[6]; [8]", "value": 23, "unit": "%"}, {"measurement": "functional health of sperm", "setting": "[6]; 800-900 IU/day", "value": "improve functional health of sperm"}, {"measurement": "blood plasma concentration of F2-isoprostane", "setting": "[6]; 1600-3200 IU/day", "value": "significantly lower"}, {"measurement": "reduction of risk of coronary disease", "setting": "[6]; doses up to 400 IU/day", "value": "up to 34%"}, {"measurement": "reduction of risk of developing neurodegenerative diseases (Alzheimer's Syndrome or dementia)", "setting": "[6]; doses up to 400 IU/day, controlled trials", "value": "≤ 24", "unit": "%"}, {"measurement": "relative biological activity", "setting": "[1]", "value": 1.0}]}
{"compound": "CCCCCc1cc(O)c2c(c1)OC(C)(C)C1CCC(C)=CC21", "note": "(stereo not drawn) [THC, Δ-9-tetrahydrocannabinol]", "values": [{"measurement": "potency in mediating pain relative to morphine", "setting": "[7]", "value": "ten times more powerful than morphine"}]}
{"compound": "CC(C)[C@@H]1CC[C@@H](C)C[C@H]1O", "note": "[Menthol]", "values": [{"measurement": "increase of transdermal drug uptake, factor", "setting": "[4]", "value": "≥ 10"}]}
